Experimental data as given in patent US12023333B2, “Phenyl-sulfamoyl.benzoyc acids as ERAP1 modulators” (GREY WOLF THERAPEUTICS LIMITED, priority 2019, dated 2024).

Target: T1, Purified ERAP1(37-941)-10His (ERAP1) (Homo sapiens, UniProt Q9NZ08)
T1 construct: Purified ERAP1(37-941)-10His (ERAP1); 10His (C)
Test: ERAP1 mediated hydrolysis of an amide substrate measured in a biochemical system (10-mer decapeptide substrate)
Conditions: 10-mer substrate, 23° C. for 1 h, excitation 279 nm and emission 355 nm; read-out: IC50 vs Decapeptide WRVYEKC(Dnp)ALK-acid (where Dnp is Dinitrophenyl maleimide) (10-mer)
In short: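 ERAP1(37-941)-10His preincubated with compound in 25 mM Bis-tris propane, 0.05% HPMC, pH 7.75, then reacted 1 h at 23 °C with 10-mer WRVYEKC(Dnp)ALK (100 μM solution added in equal volume). Fluorescence read at ex 279/em 355 nm; IC50 from 4-parameter fit.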

T1 sequence (Q9NZ08 37-941): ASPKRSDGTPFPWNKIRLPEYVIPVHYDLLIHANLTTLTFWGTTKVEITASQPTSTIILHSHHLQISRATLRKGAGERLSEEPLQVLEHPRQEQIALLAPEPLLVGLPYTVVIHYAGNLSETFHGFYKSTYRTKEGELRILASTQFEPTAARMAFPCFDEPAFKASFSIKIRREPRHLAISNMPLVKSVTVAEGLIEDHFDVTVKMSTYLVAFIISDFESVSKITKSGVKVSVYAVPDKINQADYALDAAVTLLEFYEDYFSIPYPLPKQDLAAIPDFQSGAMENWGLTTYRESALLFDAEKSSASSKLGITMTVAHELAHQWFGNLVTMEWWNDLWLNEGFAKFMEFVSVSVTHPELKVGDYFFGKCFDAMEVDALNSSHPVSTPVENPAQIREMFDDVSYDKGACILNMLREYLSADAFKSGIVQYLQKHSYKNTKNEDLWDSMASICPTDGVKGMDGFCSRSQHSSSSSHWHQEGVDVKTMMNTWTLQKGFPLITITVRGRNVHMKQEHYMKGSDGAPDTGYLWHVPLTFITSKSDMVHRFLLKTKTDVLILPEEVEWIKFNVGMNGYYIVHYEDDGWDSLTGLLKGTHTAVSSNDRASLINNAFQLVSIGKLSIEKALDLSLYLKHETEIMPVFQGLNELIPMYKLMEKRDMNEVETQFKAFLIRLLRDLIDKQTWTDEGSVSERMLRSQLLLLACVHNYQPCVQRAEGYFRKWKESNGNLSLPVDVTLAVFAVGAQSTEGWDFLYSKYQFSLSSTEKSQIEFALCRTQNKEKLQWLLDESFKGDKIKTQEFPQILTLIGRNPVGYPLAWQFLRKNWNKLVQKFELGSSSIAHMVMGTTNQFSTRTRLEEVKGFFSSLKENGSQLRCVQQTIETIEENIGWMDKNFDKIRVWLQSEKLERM

IC50, < 500 nM:
N#Cc1cc(NS(=O)(=O)c2cc(C(=O)O)ccc2C2CC2)c(-c2ccccn2)cc1Cl [Example 132, 3-(N-(4-chloro-5-cyano-2-(pyridin-2-yl)phenyl)sulfamoyl)-4-cyclopropylbenzoic acid]
N#Cc1cc(NS(=O)(=O)c2cc(C(=O)O)ccc2C2CC2)c(-c2cccc(F)c2)cc1Cl [Example 133, 3-(N-(5-chloro-4-cyano-3′-fluoro-[1,1′-biphenyl]-2-yl)sulfamoyl)-4-cyclopropylbenzoic acid]
N#Cc1cc(NS(=O)(=O)c2cc(C(=O)O)ccc2C2CC2)c(-c2ccc(Cl)s2)cc1Cl [Example 134, 3-(N-(4-chloro-2-(5-chlorothiophen-2-yl)-5-cyanophenyl)sulfamoyl)-4-cyclopropylbenzoic acid]
O=C(O)c1ccc(C2CC2)c(S(=O)(=O)Nc2cc(-c3ccns3)ccc2-c2ccccc2)c1 [Example 135, 4-cyclopropyl-3-(N-(4-(isothiazol-5-yl)-[1,1′-biphenyl]-2-yl)sulfamoyl)benzoic acid]
Cc1sncc1-c1ccc(-c2cccc(F)c2)c(NS(=O)(=O)c2cc(C(=O)O)ccc2C2CC2)c1 [Example 136, 4-cyclopropyl-3-(N-(3′-fluoro-4-(5-methylisothiazol-4-yl)-[1,1′-biphenyl]-2-yl)sulfamoyl)benzoic acid]
O=C(O)c1ccc(C2CC2)c(S(=O)(=O)Nc2cc(-c3ccns3)ccc2-c2cccc(F)c2)c1 [Example 137, 4-cyclopropyl-3-(N-(3′-fluoro-4-(isothiazol-5-yl)-[1,1′-biphenyl]-2-yl)sulfamoyl)benzoic acid]
Cc1sncc1-c1ccc(-c2cccnc2)c(NS(=O)(=O)c2cc(C(=O)O)ccc2C2CC2)c1 [Example 138, 4-cyclopropyl-3-(N-(5-(5-methylisothiazol-4-yl)-2-(pyridin-3-yl)phenyl)sulfamoyl)benzoic acid]
O=C(O)c1ccc(C2CC2)c(S(=O)(=O)Nc2cc(-c3ccns3)ccc2-c2ccccn2)c1 [Example 139, 4-cyclopropyl-3-(N-(5-(isothiazol-5-yl)-2-(pyridin-2-yl)phenyl)sulfamoyl)benzoic acid]
Cc1ccc(-c2ccc(-c3cnsc3C)cc2NS(=O)(=O)c2cc(C(=O)O)ccc2C2CC2)s1 [Example 140, 4-cyclopropyl-3-(N-(5-(5-methylisothiazol-4-yl)-2-(5-methylthiophen-2-yl)phenyl)sulfamoyl)benzoic acid]
O=C(O)c1ccc(C2CC2)c(S(=O)(=O)Nc2cc(-c3ccns3)ccc2-c2ccc(Cl)s2)c1 [Example 141, 3-(N-(2-(5-chlorothiophen-2-yl)-5-(isothiazol-5-yl)phenyl)sulfamoyl)-4-cyclopropylbenzoic acid]
Cc1sncc1-c1ccc(-c2ccc(F)s2)c(NS(=O)(=O)c2cc(C(=O)O)ccc2C2CC2)c1 [Example 142, 4-cyclopropyl-3-(N-(2-(5-fluorothiophen-2-yl)-5-(5-methylisothiazol-4-yl)phenyl)sulfamoyl)benzoic acid]
O=C(O)c1ccc(C2CC2)c(S(=O)(=O)Nc2cc(-c3ccns3)ccc2-n2cccc2)c1 [Example 143, 4-cyclopropyl-3-(N-(5-(isothiazol-5-yl)-2-(pyrrol-1-yl)phenyl)sulfamoyl)benzoic acid]
Cc1sncc1-c1ccc(-c2ccccn2)c(NS(=O)(=O)c2cc(C(=O)O)ccc2C2CC2)c1 [Example 144, 4-cyclopropyl-3-(N-(5-(5-methylisothiazol-4-yl)-2-(pyridin-2-yl)phenyl)sulfamoyl)benzoic acid]
O=C(O)c1ccc(C2CC2)c(S(=O)(=O)Nc2cc(-c3cn[nH]c3)ccc2-c2ccccn2)c1 [Example 145]
O=C(O)c1ccc(C2CC2)c(S(=O)(=O)Nc2cc(-c3ccns3)ccc2-c2cccs2)c1 [Example 146, 4-cyclopropyl-3-(N-(5-(isothiazol-5-yl)-2-(thiophen-2-yl)phenyl)sulfamoyl)benzoic acid]
O=C(O)c1ccc(C2CC2)c(S(=O)(=O)Nc2cc(-c3ccns3)ccc2-c2ccc(F)s2)c1 [Example 147, 4-cyclopropyl-3-(N-(2-(5-fluorothiophen-2-yl)-5-(isothiazol-5-yl)phenyl)sulfamoyl)benzoic acid]
Cc1sncc1-c1ccc(-c2ccccc2)c(NS(=O)(=O)c2cc(C(=O)O)ccc2C2CC2)c1 [Example 148, 4-cyclopropyl-3-(N-(4-(5-methylisothiazol-4-yl)-[1,1′-biphenyl]-2-yl)sulfamoyl)benzoic acid]
Cc1sncc1-c1ccc(-c2ccc(Cl)s2)c(NS(=O)(=O)c2cc(C(=O)O)ccc2C2CC2)c1 [Example 149, 3-(N-(2-(5-chlorothiophen-2-yl)-5-(5-methylisothiazol-4-yl)phenyl)sulfamoyl)-4-cyclopropylbenzoic acid]
Cc1sncc1-c1ccc(-n2cccc2)c(NS(=O)(=O)c2cc(C(=O)O)ccc2C2CC2)c1 [Example 150, 4-cyclopropyl-3-(N-(5-(5-methylisothiazol-4-yl)-2-(pyrrol-1-yl)phenyl)sulfamoyl)benzoic acid]
O=C(O)c1ccc(C2CC2)c(S(=O)(=O)Nc2cc(C(F)(F)F)ccc2-c2ccsn2)c1 [Example 151, 4-cyclopropyl-3-(N-(2-(isothiazol-3-yl)-5-(trifluoromethyl)phenyl)sulfamoyl)benzoic acid]
N#Cc1ccc(-c2ncccc2F)c(NS(=O)(=O)c2cc(C(=O)O)ccc2C2CC2)c1 [Example 152, 3-(N-(5-cyano-2-(3-fluoropyridin-2-yl)phenyl)sulfamoyl)-4-cyclopropylbenzoic acid]
N#Cc1ccc(-c2cccc(F)n2)c(NS(=O)(=O)c2cc(C(=O)O)ccc2C2CC2)c1 [Example 153, 3-(N-(5-cyano-2-(6-fluoropyridin-2-yl)phenyl)sulfamoyl)-4-cyclopropylbenzoic acid]
N#Cc1cc(NS(=O)(=O)c2cc(C(=O)O)ccc2C2CC2)c(-c2ccccn2)cc1F [Example 154, 3-(N-(5-cyano-4-fluoro-2-(pyridin-2-yl)phenyl)sulfamoyl)-4-cyclopropylbenzoic acid]
O=C(O)c1ccc(C2CC2)c(S(=O)(=O)Nc2cc(C(F)(F)F)c(F)cc2-n2cccc2)c1 [Example 155, 4-cyclopropyl-3-(N-(4-fluoro-2-(pyrrol-1-yl)-5-(trifluoromethyl)phenyl)sulfamoyl)benzoic acid]
O=C(O)c1ccc(C2CC2)c(S(=O)(=O)Nc2cc(C(F)(F)F)c(Cl)cc2-n2cccc2)c1 [Example 156, 3-(N-(4-chloro-2-(pyrrol-1-yl)-5-(trifluoromethyl)phenyl)sulfamoyl)-4-cyclopropylbenzoic acid]
N#Cc1cc(NS(=O)(=O)c2cc(C(=O)O)ccc2C2CC2)c(-n2cccc2)cc1F [Example 157, 3-(N-(5-cyano-4-fluoro-2-(pyrrol-1-yl)phenyl)sulfamoyl)-4-cyclopropylbenzoic acid]
COc1ccc(C(=O)O)cc1S(=O)(=O)Nc1cc(C(F)(F)F)c(Cl)cc1-n1cccc1 [Example 158, 3-(N-(4-chloro-2-(pyrrol-1-yl)-5-(trifluoromethyl)phenyl)sulfamoyl)-4-methoxybenzoic acid]
N#Cc1ccc(-c2cscn2)c(NS(=O)(=O)c2cc(C(=O)O)ccc2C2CC2)c1 [Example 159, 3-(N-(5-cyano-2-(thiazol-4-yl)phenyl)sulfamoyl)-4-cyclopropylbenzoic acid]
Cc1oncc1-c1ccc(-c2ccc(F)s2)c(NS(=O)(=O)c2cc(C(=O)O)ccc2C2CC2)c1 [Example 160, 4-cyclopropyl-3-(N-(2-(5-fluorothiophen-2-yl)-5-(5-methylisoxazol-4-yl)phenyl)sulfamoyl)benzoic acid]
N#Cc1cc(NS(=O)(=O)c2cc(C(=O)O)ccc2C2CC2)c(-n2cccc2)cc1Cl [Example 161, 3-(N-(4-chloro-5-cyano-2-(pyrrol-1-yl)phenyl)sulfamoyl)-4-cyclopropylbenzoic acid]
COc1ccc(C(=O)O)cc1S(=O)(=O)Nc1cc(C(F)(F)F)c(F)cc1-n1cccc1 [Example 162, 3-(N-(4-fluoro-2-(pyrrol-1-yl)-5-(trifluoromethyl)phenyl)sulfamoyl)-4-methoxybenzoic acid]
N#Cc1ccc(-c2nccs2)c(NS(=O)(=O)c2cc(C(=O)O)ccc2C2CC2)c1 [Example 163, 3-(N-(5-cyano-2-(thiazol-2-yl)phenyl)sulfamoyl)-4-cyclopropylbenzoic acid]
Cc1oncc1-c1ccc(-c2ccc(Cl)s2)c(NS(=O)(=O)c2cc(C(=O)O)ccc2C2CC2)c1 [Example 164, 3-(N-(2-(5-chlorothiophen-2-yl)-5-(5-methylisoxazol-4-yl)phenyl)sulfamoyl)-4-cyclopropylbenzoic acid]
N#Cc1ccc(-c2cccnn2)c(NS(=O)(=O)c2cc(C(=O)O)ccc2C2CC2)c1 [Example 165, 3-(N-(5-cyano-2-(pyridazin-3-yl)phenyl)sulfamoyl)-4-cyclopropylbenzoic acid]
